{
  "source": "patent US20220304997A1",
  "about": "“REBAMIPIDE FOR USE IN PROPHYLAXIS AND TREATMENT OF CANCER” (SQUARE POWER LTD., priority 2019, published 2022)",
  "test_system": "Male CD-1 mice",
  "assay": "DSS model combined with PhIP treatment (increased intestinal permeability, colitis and colon tumors)",
  "assay_type": "in vivo",
  "text": "To study the effect of rebamipide on increased intestinal permeability, colonic inflammation and cancer development, a DSS model combined with PhIP treatment was employed. Male CD-1 mice, divided into three groups, designated A to C, were used in the study. […] Subsequently, all animals were given inflammatory insult using 2% dextran sodium sulfate (DSS) in drinking water for 7 days, followed by 2-4 weeks of recovery period, during which mice were given untreated water. This cycle was repeated up to four times to induce increased intestinal permeability leading to severe colitis with loss of body weight and bloody diarrhea. Subsequently, majority of animals developed multiple colon tumors. Treatment with DSS (dextran sulfate sodium) induces increased intestinal permeability in mice by binding to medium-chain-length fatty acids present in the colon leading to development of inflammation and colitis. Besides that, the DSS administration leads to a long-term development of dysplasia and even colon cancer in some of the mice treated. PhIP treatment accelerates this process and further increases the incidence of colonic tumors. Another advantage of including PhIP in the protocol is that it allows reduction of the DSS dose in mice, and decreases the mortality from DSS-associated acute colitis. The carcinogenic process of the DSS/PhIP system has a pathological progression from normal intestinal crypts to the formation of foci harboring aberrant crypts with crypt fission and finally to the emergence of microadenomas. These steps recapitulate the sequence of colorectal cancer formation in humans from increased intestinal permeability and inflammation through dysplasia to carcinoma. Rebamipide treatment started four weeks prior to carcinogen administration and continued throughout the study. Groups A and B received rebamipide 50 mg/kg/day and 350 mg/kg/day, respectively. Rebamipide was applied within the standard daily feed or by gavage if needed. The treatment lasted for 20 weeks. […] [table] The observed parameters were as follows: • Number and size of tumors • Histological evaluation of the tumors • Weight loss • Colitis severity assessment • Gut permeability • Cytokines and related markers (IL-6, IL-10, IL-1b, TNFα, iNOS, IL-23p19, MCP 1, MIP 2, CXCL1) • Cell-cell adhesion proteins (Claudin 1, β catenin) • Expression of target genes",
  "key": {"[1]": {"details": "PhIP/DSS-treated mice, in comparison to untreated animals"}, "[2]": {"details": "groups A and B, rebamipide 50 mg/kg/day and 350 mg/kg/day, 20 weeks, vs untreated control group C, preliminary results"}},
  "data": [
    {"smiles": "O=C(NC(Cc1cc(=O)[nH]c2ccccc12)C(=O)O)c1ccc(Cl)cc1", "note": "(stereo not drawn) [rebamipide, 2-[(4-chlorobenzoyl)amino]-3-(2-oxo-1H-quinolin-4-yl)propanoic acid]", "values": [
      {"measurement": "intestinal inflammation", "setting": "[1]", "result": "suppresses intestinal inflammation"},
      {"measurement": "onset of the symptoms and markers corresponding to colon cancer", "setting": "[1]", "result": "preventing or at least delaying the onset"},
      {"measurement": "permeability of the gastrointestinal mucosa", "setting": "[1]", "result": "decrease in permeability"},
      {"measurement": "recovery from the DSS treatment", "setting": "groups A and B, rebamipide 50 mg/kg/day and 350 mg/kg/day in feed or by gavage, 20 weeks, vs untreated control group C, preliminary results", "result": "recovered faster"},
      {"measurement": "incidence of tumors at the end of the study", "setting": "[2]", "result": "lower incidence"},
      {"measurement": "size of tumors at the end of the study", "setting": "[2]", "result": "lower incidence and size of tumors"}
    ]}
  ]
}
